Series [1] addresses Voltage-gated inwardly rectifying potassium channel KCNH2 (Homo sapiens, UniProt Q12809). The note with it: hek293.
A short description of series [2]: DRUGMATRIX: GABAA, Flunitrazepam, Central radioligand binding (ligand: [3H] Flunitrazepam). The class given is cell membranes, Rattus norvegicus, Wistar, Brain, Membrane. Conditions: Not Active = under 50% inhibition at 10 µM.
Series [3] is described as follows: DRUGMATRIX: Interleukin IL-1 radioligand binding (ligand: [125I] interleukin 1beta). Format: cell membranes, Membrane. Conditions: nih3t3; Not Active = under 50% inhibition at 10 µM.
Series [4] can be described thus: DRUGMATRIX: GABAA, Muscimol, Central radioligand binding (ligand: [3H] Muscimol). Format: cell membranes, Rattus norvegicus, Wistar, Brain, Membrane. The note with it: Not Active = under 50% inhibition at 10 µM.
Series [5] in a line: DRUGMATRIX: GABAA, Chloride Channel, TBOB radioligand binding (ligand: [3H] TBOB). Conditions: Not Active = under 50% inhibition at 10 µM. The class given is cell membranes, Rattus norvegicus, Wistar, Cerebral cortex, Membrane.
Series [6] has as its target D(3) dopamine receptor (Homo sapiens, UniProt P35462). Description: DRUGMATRIX: Dopamine D3 radioligand binding (ligand: [3H] Spiperone). Format: cell membranes, CHO, Membrane.

Sequence of Voltage-gated inwardly rectifying potassium channel KCNH2 (Q12809 whole entry): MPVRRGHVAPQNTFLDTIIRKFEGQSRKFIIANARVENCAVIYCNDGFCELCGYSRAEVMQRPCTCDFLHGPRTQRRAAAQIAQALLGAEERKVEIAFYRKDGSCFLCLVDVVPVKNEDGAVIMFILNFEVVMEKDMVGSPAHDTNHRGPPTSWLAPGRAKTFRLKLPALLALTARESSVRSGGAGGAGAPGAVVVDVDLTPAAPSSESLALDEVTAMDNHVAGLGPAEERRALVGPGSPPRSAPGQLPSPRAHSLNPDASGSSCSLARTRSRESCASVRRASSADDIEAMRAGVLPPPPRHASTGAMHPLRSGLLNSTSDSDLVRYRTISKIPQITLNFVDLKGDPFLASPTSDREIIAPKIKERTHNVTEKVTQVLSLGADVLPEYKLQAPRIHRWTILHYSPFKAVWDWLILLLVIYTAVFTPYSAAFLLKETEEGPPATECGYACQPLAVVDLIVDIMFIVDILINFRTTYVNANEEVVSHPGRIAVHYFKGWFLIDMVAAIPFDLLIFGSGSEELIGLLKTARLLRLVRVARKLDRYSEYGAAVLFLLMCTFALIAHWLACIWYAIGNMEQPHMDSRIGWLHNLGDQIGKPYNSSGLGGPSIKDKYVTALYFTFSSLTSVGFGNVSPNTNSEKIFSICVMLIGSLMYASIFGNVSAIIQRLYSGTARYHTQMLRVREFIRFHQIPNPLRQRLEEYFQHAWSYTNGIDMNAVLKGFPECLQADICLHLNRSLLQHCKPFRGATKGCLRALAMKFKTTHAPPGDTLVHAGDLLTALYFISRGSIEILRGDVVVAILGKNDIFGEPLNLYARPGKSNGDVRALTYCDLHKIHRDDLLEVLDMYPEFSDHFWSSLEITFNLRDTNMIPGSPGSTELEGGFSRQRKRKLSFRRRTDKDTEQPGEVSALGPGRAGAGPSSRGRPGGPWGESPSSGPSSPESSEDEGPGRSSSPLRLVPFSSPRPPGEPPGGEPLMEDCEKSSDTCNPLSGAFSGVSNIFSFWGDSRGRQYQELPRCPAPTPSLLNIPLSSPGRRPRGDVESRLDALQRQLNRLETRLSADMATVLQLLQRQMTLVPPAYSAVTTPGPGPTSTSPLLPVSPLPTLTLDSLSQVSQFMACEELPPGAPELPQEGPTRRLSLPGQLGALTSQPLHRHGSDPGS
Sequence of D(3) dopamine receptor (P35462 whole entry): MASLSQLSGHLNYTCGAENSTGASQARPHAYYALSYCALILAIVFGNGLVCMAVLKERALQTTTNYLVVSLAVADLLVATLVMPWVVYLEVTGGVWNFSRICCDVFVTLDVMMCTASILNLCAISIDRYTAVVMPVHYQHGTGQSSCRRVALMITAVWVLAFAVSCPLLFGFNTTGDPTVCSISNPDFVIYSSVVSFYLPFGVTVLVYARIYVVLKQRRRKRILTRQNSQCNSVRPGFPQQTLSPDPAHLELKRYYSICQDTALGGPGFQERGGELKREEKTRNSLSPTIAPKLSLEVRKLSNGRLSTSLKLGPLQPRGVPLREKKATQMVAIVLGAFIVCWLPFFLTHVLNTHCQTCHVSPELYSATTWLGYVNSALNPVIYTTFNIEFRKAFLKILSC

`O=C(c1ccccc1C(F)(F)F)N1CCC(Cc2ccccc2)CC1`: the IC50 entry in series [1], in series [2], in series [3], in series [4], in series [5] and in series [6] (cho) was “Not Active” throughout. In addition, the Ki result in series [1], in series [2], in series [3], in series [4] and in series [5] was “Not Active” in each case.

On to `O=C/C=C/c1ccccc1`, for which the IC50 result in series [1], in series [2], in series [3], in series [4], in series [5] and in series [6] (cho) was “Not Active” throughout. For the same compound, the Ki result in series [1], in series [2], in series [3], in series [4] and in series [5] was “Not Active” in each case.

With `Nc1ccc2c3c(cccc13)C(=O)NC2=O`, the IC50 entry in series [1], in series [2], in series [3], in series [4], in series [5] and in series [6] (cho) was “Not Active” throughout. The Ki entry in series [1], in series [2], in series [3], in series [4] and in series [5] was “Not Active” each time.

Regarding `COc1ccc(C(=O)N2CCCC2=O)cc1`, the IC50 result in series [1], in series [2], in series [3], in series [4], in series [5] and in series [6] (cho) was “Not Active” in each case. For the same compound, the Ki result in series [1], in series [2], in series [3], in series [4] and in series [5] was “Not Active” each time.

As for `O=c1cnn([C@@H]2O[C@H](CO)[C@@H](O)[C@H]2O)c(=O)[nH]1` [6-AZAURIDINE], the IC50 entry in series [1], in series [2], in series [3], in series [4], in series [5] and in series [6] (cho) was “Not Active” each time. Besides, the Ki result in series [1], in series [2], in series [3], in series [4] and in series [5] was “Not Active” throughout.

On to `CC[C@H](C)[C@H]1O[C@]2(C=C[C@@H]1C)C[C@@H]1C[C@@H](C/C=C(\C)[C@@H](O[C@H]3C[C@H](OC)[C@@H](O[C@H]4C[C@H](OC)[C@@H](O)[C@H](C)O4)[C@H](C)O3)[C@@H](C)/C=C/C=C3\CO[C@@H]4[C@H](O)C(C)=C[C@@H](C(=O)O1)[C@]34O)O2.CO[C@H]1C[C@H](O[C@H]2[C@H](C)O[C@@H](O[C@@H]3/C(C)=C/C[C@@H]4C[C@@H](C[C@]5(C=C[C@H](C)[C@@H](C(C)C)O5)O4)OC(=O)[C@@H]4C=C(C)[C@@H](O)[C@H]5OC/C(=C\C=C\[C@@H]3C)[C@]54O)C[C@@H]2OC)O[C@@H](C)[C@@H]1O` [ABAMECTIN], for which the IC50 entry in series [1], in series [2], in series [3], in series [4], in series [5] and in series [6] (cho) was “Not Active” throughout. The inhibition constant (Ki) entry in series [1], in series [2], in series [3], in series [4] and in series [5] was “Not Active” throughout.

Regarding `NCCCC(O)(P(=O)(O)O)P(=O)(O)O` [ALENDRONIC ACID], the IC50 entry in series [2], in series [3], in series [4], in series [5] and in series [6] (cho) was “Not Active” each time. For the same compound, the Ki result in series [2], in series [3], in series [4] and in series [5] was “Not Active” each time.

Consider `Cc1nnc2n1-c1ccc(Cl)cc1C(c1ccccc1)=NC2` [ALPRAZOLAM], for which the IC50 result in series [1] was “Not Active”; in series [2] (read-out: IC50), 16.6 nM; in series [3], “Not Active”; in series [4], “Not Active”; in series [5], “Not Active”; in series [6] (cho), “Not Active”. The Ki entry was “Not Active” in series [1]; 13.5 nM in series [2] (read-out: Ki); “Not Active” in series [3]; “Not Active” in series [4]; “Not Active” in series [5].

Regarding `Cn1c(=O)c2[nH]cnc2n(C)c1=O.Cn1c(=O)c2[nH]cnc2n(C)c1=O.NCCN` [AMINOPHYLLINE], the IC50 result in series [1], in series [2], in series [3], in series [4], in series [5] and in series [6] (cho) was “Not Active” each time. The Ki entry in series [1], in series [2], in series [3], in series [4] and in series [5] was “Not Active” each time.

Consider `CCC1(CCC(C)C)C(=O)NC(=O)NC1=O` [AMOBARBITAL], for which the IC50 entry in series [1], in series [2], in series [3], in series [4], in series [5] and in series [6] (cho) was “Not Active” in each case. For the same compound, the Ki entry in series [1], in series [2], in series [3], in series [4] and in series [5] was “Not Active” throughout.

For the compound `CC1(C)S[C@@H]2[C@H](NC(=O)[C@H](N)c3ccccc3)C(=O)N2[C@H]1C(=O)O` [AMPICILLIN], the IC50 entry in series [2], in series [3], in series [4], in series [5] and in series [6] (cho) was “Not Active” each time. Further, the Ki entry in series [2], in series [3], in series [4] and in series [5] was “Not Active” in each case.

With `COc1ccc(C2C(=O)c3ccccc3C2=O)cc1` [ANISINDIONE], the IC50 result in series [1], in series [2], in series [3], in series [4], in series [5] and in series [6] (cho) was “Not Active” throughout. Further, the Ki result in series [1], in series [2], in series [3], in series [4] and in series [5] was “Not Active” each time.

In the case of `O=C1O[C@H]([C@@H](O)CO)C(O)=C1O` [ASCORBIC ACID], the IC50 entry in series [1], in series [2], in series [3], in series [4], in series [5] and in series [6] (cho) was “Not Active” each time. The Ki entry in series [1], in series [2], in series [3], in series [4] and in series [5] was “Not Active” throughout.

Consider `CN1[C@@H]2CC[C@H]1C[C@@H](OC(=O)C(CO)c1ccccc1)C2` (some centres undefined) [ATROPINE], for which the IC50 result in series [2], in series [3], in series [4], in series [5] and in series [6] (cho) was “Not Active” each time. Besides, the Ki result in series [2], in series [3], in series [4] and in series [5] was “Not Active” each time.

Take `COc1cc(N)c(Cl)cc1C(=O)NC1CCN(CCCOc2ccc(F)cc2)CC1OC` (centres undefined) [CISAPRIDE]: the IC50 result in series [2] was “Not Active”; in series [3], “Not Active”; in series [4], “Not Active”; in series [5] it was “Not Active”; in series [6] (read-out: IC50) it was 144 nM. Further, the Ki entry in series [2] is “Not Active”; in series [3] it was “Not Active”; in series [4], “Not Active”; in series [5], “Not Active”; in series [6] (read-out: Ki), 49 nM.

Regarding `CC[C@H]1CN2CCc3cc(OC)c(OC)cc3[C@@H]2C[C@@H]1C[C@H]1NCCc2cc(OC)c(OC)cc21` [EMETINE], the IC50 result in series [2], in series [3], in series [4], in series [5] and in series [6] (cho) was “Not Active” throughout. For the same compound, the Ki result in series [2], in series [3], in series [4] and in series [5] was “Not Active” each time.

`CCN(CC)CCOCCC1=CCC2CC1C2(C)C` (centres undefined) [MYRTECAINE]: the IC50 result in series [2], in series [3], in series [4], in series [5] and in series [6] (cho) was “Not Active” each time. In addition, the Ki result in series [2], in series [3], in series [4] and in series [5] was “Not Active” each time.

Regarding `COc1cc2nc(N3CCN(C(=O)c4ccco4)CC3)nc(N)c2cc1OC` [PRAZOSIN], the IC50 entry in series [2], in series [3], in series [4], in series [5] and in series [6] (cho) was “Not Active” each time. In addition, the Ki result in series [2], in series [3], in series [4] and in series [5] was “Not Active” throughout.

With `CCCNCC(O)COc1ccccc1C(=O)CCc1ccccc1` (centres undefined) [PROPAFENONE], the IC50 result in series [2], in series [3], in series [4], in series [5] and in series [6] (cho) was “Not Active” each time. For the same compound, the inhibition constant (Ki) result in series [2], in series [3], in series [4] and in series [5] was “Not Active” in each case.

As usually defined, the IC50 is the midpoint of a concentration-inhibition curve. In general, Ki refers to the dissociation constant of the complex between target and ligand, obtained from inhibition or displacement.

For the origin of these results see ChEMBL document CHEMBL1909046, “DrugMatrix in vitro pharmacology data”.
